Read-outs that look alike come from different tables or passages of the source.
System: male Std: Wistar rats
Experiment: Pain test by plantar thermal stimuli (plantar test)
Assay type: in vivo
Conditions: Rattus norvegicus, 50 μl of 0.03% (W/V) solution i.pl. into right hind-paw, 4 hours after administration, cut-off 25 seconds, read-out: % MPE (percent maximum possible effect, withdrawal latency)
Experimental: Experiment 1: Pain Test by Plantar Thermal Stimuli (Plantar Test)
In the present experiment, the analgesic effect of the compounds of the invention was evaluated by the measurements of withdrawal latency to noxious thermal stimuli, according to the methods of Hargreaves, et al., [Pain, 32, 77-88 (1988)] and Field, et al., [J. Pharmacol. Exp. Ther., 282, 1242-1246 (1997)].
In detail, the experiment was carried out using male Std: Wistar rats (4 rats/group; body weight, 170-220 g) and a plantar test device (Model 7370, Ugo Basile) with infrared beam as a heat source. The rat was put into an experimental cage that is an acrylic box whose bottom is made of glass and was habituated therein. Then, the infrared beam was radiated to the plantar surface of right hind-paw thereof through the floor glass, and the withdrawal latency was measured every 5 minutes, 3 times. The intension of the infrared beam was adjusted so that the pre-drug administration latency was about 10 seconds. The cut-off time was set at 25 seconds in order to prevent a paw burn. The average of the latencies was calculated, and then it was defined as the value of the pre-drug administration latency of the test compound.
Next day, 50 μl of each solution of the test compounds [the compounds of the invention, the compounds of the comparative Examples and capsaicin (Sigma, U.S.A.)] or 50 μl of vehicle solvent (reference) was given to a right hind-paw of the rat by intraplantar injection (i. pl.) using a micro-syringe. The test compound was dissolved in a saline solution containing 10% Tween 80 (Sigma, U.S.A) and 10% ethanol to give a 0.03% (W/V) solution. The saline solution containing 10% Tween 80 and 10% ethanol was used as reference. Four hours after i.pl. administration of each the test compound or the reference to the rats, the experiment mentioned above was carried out, and then the post-drug administration latency was measured. The analgesic effects thereof were calculated with the following formula, which was known as a percent maximum possible effect (% MPE). % MPE=[(the value of post-drug latency−the value of pre-drug latency)/(25*−the value of pre-drug latency)]×100 *: cut-off time

SMILES | change in vivo at 300 µg/mL (4 h) | change in vivo at 300 µg/mL
CCCCOC[C@H]1CC[C@H](NC(=O)Cc2ccc(O)c(OC)c2)CC1 [Example 39] | 39.6% | 
COc1cc(CC(=O)N[C@H]2CC[C@H](OC(=O)c3ccc(C)cc3)CC2)ccc1O [Example 40, 2-(4-hydroxy-3-methoxyphenyl)-N-[trans-4-(4-methylphenylcarbonyloxy)cyclohexyl]acetamide] | 48.3% | 
COc1cc(CC(=O)N[C@H]2CC[C@H](OC(=O)Cc3ccccc3)CC2)ccc1O [Example 41, N-[trans-4-(benzylcarbonyloxy)cyclohexyl]-2-(4-hydroxy-3-methoxyphenyl)acetamide] |  | 45.8%
COc1cc(CC(=O)N[C@H]2CC[C@@H](CC=C(C)C)CC2)ccc1O [Example 47, 2-(4-hydroxy-3-methoxyphenyl)-N-[cis-4-(3-methyl-2-butenyl)cyclohexyl]acetamide] | 69% | 
COc1cc(CC(=O)N[C@H]2CC[C@@H](CCC(C)C)CC2)ccc1O [Example 48, 2-(4-hydroxy-3-methoxyphenyl)-N-[cis-4-(3-methylbutyl)cyclohexyl]acetamide] | 79.6% | 
CC/C=C\[C@H]1CC[C@@H](NC(=O)Cc2ccc(O)c(OC)c2)CC1 [Example 49, N-{cis-4-[(Z)-1-butenyl]cyclohexyl}-2-(4-hydroxy-3-methoxyphenyl)acetamide] | 97% | 
C/C=C\[C@H]1CC[C@@H](NC(=O)Cc2ccc(O)c(OC)c2)CC1 [Example 50] | 48.2% | 
COc1cc(CC(=O)N[C@H]2CC[C@@H](/C=C\CC(C)C)CC2)ccc1O [Example 51] | 96.4% | 
CC/C=C/[C@H]1CC[C@H](NC(=O)Cc2ccc(O)c(OC)c2)CC1 [Example 52, N-{trans-4-[(E)-1-butenyl]cyclohexyl}-2-(4-hydroxy-3-methoxyphenyl)acetamide] | 91.5% | 
C/C=C/[C@H]1CC[C@H](NC(=O)Cc2ccc(O)c(OC)c2)CC1 [Example 53] | 47.1% | 
CCC/C=C/[C@H]1CC[C@H](NC(=O)Cc2ccc(O)c(OC)c2)CC1 [Example 54] | 82.5% | 
COc1cc(CC(=O)N[C@H]2CC[C@H](/C=C/C3CC3)CC2)ccc1O [Example 55] | 55.4% | 
COc1cc(CC(=O)N[C@H]2CC[C@H](/C=C/CC(C)C)CC2)ccc1O [Example 56] | 70.2% | 
COc1cc(CC(=O)N[C@H]2CC[C@H](/C=C/C3CCC3)CC2)ccc1O [Example 57] | 54.2% | 
COc1cc(CC(=O)N[C@H]2CC[C@H](/C=C/CC3CC3)CC2)ccc1O [Example 58] | 48.6% | 
COc1cc(CC(=O)N[C@H]2CC[C@H](CCC3CCC3)CC2)ccc1O [Example 59, N-[trans-4-(2-cyclobutylethyl)cyclohexyl]-2-(4-hydroxy-3-methoxyphenyl)acetamide] | 74.7% | 
CCC/C=C/[C@H]1CC[C@@H](NC(=O)Cc2ccc(O)c(OC)c2)CC1 [Example 60, 2-(4-hydroxy-3-methoxyphenyl)-N-{cis-4-[(E)-1-pentenyl]cyclohexyl}acetamide] | 91.4% | 
C/C=C/[C@H]1CC[C@@H](NC(=O)Cc2ccc(O)c(OC)c2)CC1 [Example 61] | 49.4% | 
CC/C=C/[C@H]1CC[C@@H](NC(=O)Cc2ccc(O)c(OC)c2)CC1 [Example 62] | 86.3% | 
COc1cc(CC(=O)N[C@H]2CC[C@@H](/C=C/C(C)C)CC2)ccc1O [Example 63] | 96.4% | 
COc1cc(CC(=O)N[C@H]2CC[C@@H](/C=C/C3CC3)CC2)ccc1O [Example 64] | 71.1% | 
COc1cc(CC(=O)N[C@H]2CC[C@@H](/C=C/CC(C)C)CC2)ccc1O [Example 65] | 100% | 
COc1cc(CC(=O)N[C@H]2CC[C@@H](/C=C/C3CCC3)CC2)ccc1O [Example 66] | 88% | 
COc1cc(CC(=O)N[C@H]2CC[C@@H](/C=C/CC3CC3)CC2)ccc1O [Example 67] | 55.6% | 
CCC[C@H]1CC[C@@H](NC(=O)Cc2ccc(O)c(OC)c2)CC1 [Example 68, 2-(4-hydroxy-3-methoxyphenyl)-N-(cis-4-propylcyclohexyl)acetamide] | 81.6% | 

SMILES | change in vivo at 300 µg/mL (4 h) | change in vivo at 300 µg/mL
COc1cc(CC(=O)N[C@H]2CC[C@@H](CCCC(C)C)CC2)ccc1O [Example 69] | 79.9% | 
COc1cc(CC(=O)N[C@H]2CC[C@@H](CCC3CCC3)CC2)ccc1O [Example 70] | 92.6% | 
COc1cc(CC(=O)N[C@H]2CC[C@@H](CCCC3CC3)CC2)ccc1O [Example 71] | 87.9% | 
C=C(C)/C=C/[C@H]1CC[C@H](NC(=O)Cc2ccc(O)c(OC)c2)CC1 [Example 72, 2-(4-hydroxy-3-methoxyphenyl)-N-{trans-4-[(E)-3-methyl-1,3-butadienyl]cyclohexyl}acetamide] | 75.4% | 
C/C=C\CC[C@H]1CC[C@H](NC(=O)Cc2ccc(O)c(OC)c2)CC1 [Example 73, 2-(4-hydroxy-3-methoxyphenyl)-N-{trans-4-[(Z)-3-pentenyl]cyclohexyl}acetamide] | 74.1% | 
C=CCC[C@H]1CC[C@H](NC(=O)Cc2ccc(O)c(OC)c2)CC1 [Example 74, N-[trans-4-(3-butenyl)cyclohexyl]-2-(4-hydroxy-3-methoxyphenyl)acetamide] | 57.1% | 
C/C=C/CC[C@H]1CC[C@H](NC(=O)Cc2ccc(O)c(OC)c2)CC1 [Example 75, 2-(4-hydroxy-3-methoxyphenyl)-N-{trans-4-[(E)-3-pentenyl]cyclohexyl}acetamide] | 74.4% | 
COc1cc(CC(=O)NC2CCC(=C3CCCCC3)CC2)ccc1O (stereo not shown) [Example 76, N-(4-cyclohexylidenecyclohexyl)-2-(4-hydroxy-3-methoxyphenyl)acetamide] | 71% | 
CCC(CC)=C1CCC(NC(=O)Cc2ccc(O)c(OC)c2)CC1 (stereo not shown) [Example 77] | 78.6% | 
CCCC(CCC)=C1CCC(NC(=O)Cc2ccc(O)c(OC)c2)CC1 (stereo not shown) [Example 78] | 82.8% | 
COc1cc(CC(=O)NC2CCC(=C3CCC3)CC2)ccc1O (stereo not shown) [Example 79] | 33.6% | 
COc1cc(CC(=O)NC2CCC(=C3CCCC3)CC2)ccc1O (stereo not shown) [Example 80] | 37% | 
COc1cc(CC(=O)NC2CCC(=C3CCCCCC3)CC2)ccc1O (stereo not shown) [Example 81] | 94.4% | 
COc1cc(CC(=O)NC2CCC(=C(C)C)CC2)ccc1O (stereo not shown) [Example 82, 2-(4-hydroxy-3-methoxyphenyl)-N-(4-isopropylidenecyclohexyl)acetamide] | 68.4% | 
COc1cc(CC(=O)N[C@H]2CC[C@H](C3CCCCC3)CC2)ccc1O [Example 83, N-(trans-4-cyclohexylcyclohexyl)-2-(4-hydroxy-3-methoxyphenyl)acetamide] | 77.4% | 
CCC(CC)[C@H]1CC[C@H](NC(=O)Cc2ccc(O)c(OC)c2)CC1 [Example 84] | 76.9% | 
CCCC(CCC)[C@H]1CC[C@H](NC(=O)Cc2ccc(O)c(OC)c2)CC1 [Example 85] | 49.3% | 
COc1cc(CC(=O)N[C@H]2CC[C@H](C3CCC3)CC2)ccc1O [Example 86] | 68.6% | 
COc1cc(CC(=O)N[C@H]2CC[C@H](C3CCCCCC3)CC2)ccc1O [Example 87] | 80.1% | 
CCC(CC)C1=CCC(NC(=O)Cc2ccc(O)c(OC)c2)CC1 (stereo not shown) [Example 88, 2-(4-hydroxy-3-methoxyphenyl)-N-[4-(3-pentyl)-3-cyclohexenyl]acetamide] | 95.5% | 
CCCC(CCC)C1=CCC(NC(=O)Cc2ccc(O)c(OC)c2)CC1 (stereo not shown) [Example 89, N-[4-(4-heptyl)-3-cyclohexenyl]-2-(4-hydroxy-3-methoxyphenyl)acetamide] | 100% | 
COc1cc(CC(=O)N[C@H]2CC[C@H](C=C3CCC3)CC2)ccc1O [Example 91, N-[trans-4-(cyclobutylidenemethyl)-cyclohexyl]-2-(4-hydroxy-3-methoxyphenyl)acetamide] | 74.2% | 
COc1cc(CC(=O)N[C@H]2CC[C@H](CC3CCC3)CC2)ccc1O [Example 93, N-[trans-4-(cyclobutylmethyl)cyclohexyl]-2-(4-hydroxy-3-methoxyphenyl)acetamide] | 69.7% | 
C/C=C\C[C@H]1CC[C@H](NC(=O)Cc2ccc(O)c(OC)c2)CC1 [Example 94, N-{trans-4-[(Z)-2-butenyl]cyclohexyl}-2-(4-hydroxy-3-methoxyphenyl)acetamide] | 69.1% | 
